Results published in US20170129916A1, “NOVEL BETULINIC PROLINE IMIDAZOLE DERIVATIVES AS HIV INHIBITORS” (HETERO RESEARCH FOUNDATION, priority 2014, published 2017).

Assays:
[1] = Single dose oral pharmacokinetic study; type: in vivo; conditions: mouse, mice, 30 mg/kg, plasma; for AUC(0-t): read-out: Mice oral PK @30 mg/kg AUC 0-t; for Cmax: read-out: Mice oral PK @30 mg/kg Cmax
Description: The test item was administered through oral route to animals (rat/mice) at 30 mg/kg dose in a suitable vehicle at 10 ml/kg dose volume. Blood samples (˜50 uL at each time point) were collected from retro-orbital plexus using K3 EDTA as anticoagulant in eppend; orf tubes at defined time intervals under light ether anesthesia. The samples were centrifuged at 3500×g to separate plasma and stored at −80° C. until analysis.
Sample analysis: Test samples were analyzed using LC-MS-MS after developing fit-for-purpose method for each of test compound.

[2] = tested on: HIV-1 strains, for e.g., 92HT599; experiment: Antiviral activity: p24 estimation in MT-2 cells infected with HIV-1; type: cell-based; conditions: Human immunodeficiency virus 1, MT2, MT-2 cells infected with HIV-1, p24, ~96 hours; for IC50: read-out: Antiviral activity IC50 (nM) Efficacy IC50
Description: MT-2 cells were infected with required number of TCID50's of HIV-1 strains, for e.g., 92HT599. The infected cells were plated at the concentration of 30, 000 cells per well in a 96 well plate. Test compound was added to the 96 well plate with the final concentration of DMSO (vehicle—not more than 1%). The plates are then incubated in a CO2 incubator for ˜96 hours (˜4 days) for viral infection. At the end of incubation period an aliquot from each well was taken for p24 estimation. The quantitation of p24 is an estimated index for antiviral activity of the compound. Percent inhibition was calculated with reference to control values (vehicle controls).
p-24 estimation was carried out using Advance biosciences kit as per the procedure detailed by supplier.

SMILES | AUC(0-t) [1] [µg·h/mL] | Cmax [1] [ng/mL] | IC50 [2] [nM] | inhibition at 0.1 µM [2] [%] | inhibition at 1 µM [2] [%]
COCCO[C@@H]1C[C@@H](c2nc(-c3ccc(F)cc3)c[nH]2)N(C(=O)[C@]23CC[C@@H](C4(C)CC4)[C@@H]2[C@H]2CC[C@@H]4[C@@]5(C)CC[C@H](OC(=O)[C@H]6C[C@@H](C(=O)O)C6(C)C)C(C)(C)[C@@H]5CC[C@@]4(C)[C@]2(C)CC3)C1 [Compound 55, (1R,3S)-3-((((1R,3aS,5aR,5bR,7aR,9S,11aR,11bR,13aR,13bR)-3a-((2S,4R)-2-(4-(4-fluorophenyl)-1H-imidazol-2-yl)-4-(2-methoxyethoxy)pyrrolidine-1-carbonyl)-5a,5b,8,8,11a-pentamethyl-1-(1-methylcyclopropyl)icosahydro-1H-cyclopenta[a]chrysen-9-yl)oxy)carbonyl)-2,2-dimethylcyclobutane-1-carboxylic acid] | 381 | 14300 | 1.04 |  | 
C=C(C)[C@@H]1CC[C@]2(C(=O)N3CCC[C@H]3c3ncc(-c4ccccc4)[nH]3)CC[C@]3(C)[C@H](CC[C@@H]4[C@@]5(C)CC[C@H](OC(=O)c6ccc(OC(C)(C)C(=O)O)cc6)C(C)(C)[C@@H]5CC[C@]43C)[C@@H]12 [Compound 23, 2-methyl-2-(4-((((1R,3aS,5aR,5bR,7aR,9S,11aR,11bR,13aR,13bR)-5a,5b,8,8,11a-pentamethyl-3a-((S)-2-(5-phenyl-1H-imidazol-2-yl)pyrrolidine-1-carbonyl)-1-(prop-1-en-2-yl)icosahydro-1H-cyclopenta[a]chrysen-9-yl)oxy)carbonyl)phenoxy)propanoic acid] | 302 | 10600 | 0.7 |  | 
C=C(C)[C@@H]1CC[C@]2(C(=O)N3CCC[C@H]3c3nc(-c4ccccc4)c(C)[nH]3)CC[C@]3(C)[C@H](CC[C@@H]4[C@@]5(C)CC[C@H](OC(=O)[C@H]6C[C@@H](C(=O)O)C6(C)C)C(C)(C)[C@@H]5CC[C@]43C)[C@@H]12 [Compound 13, (1R,3S)-2,2-dimethyl-3-((((1R,3aS,5aR,5bR,7aR,9S,11aR,11bR,13aR,13bR)-5a,5b,8,8,11a-pentamethyl-3a-((S)-2-(5-methyl-4-phenyl-1H-imidazol-2-yl)pyrrolidine-1-carbonyl)-1-(prop-1-en-2-yl)icosahydro-1H-cyclopenta[a]chrysen-9-yl)oxy)carbonyl)cyclobutane-1-carboxylic acid] |  |  | 4.9 |  | 
CC(C)(CC(=O)O)CC(=O)O[C@H]1CC[C@]2(C)[C@H]3CC[C@@H]4[C@H]5[C@H](C6(C)CC6)CC[C@]5(C(=O)N5CCC[C@H]5c5ncc(-c6cccc(F)c6)[nH]5)CC[C@@]4(C)[C@]3(C)CC[C@H]2C1(C)C [Compound 64, 5-(((1R,3aS,5aR,5bR,7aR,9S,11aR,11bR,13aR,13bR)-3a-((S)-2-(5-(3-fluorophenyl)-1H-imidazol-2-yl)pyrrolidine-1-carbonyl)-5a,5b,8,8,11a-pentamethyl-1-(1-methylcyclopropyl)icosahydro-1H-cyclopenta[a]chrysen-9-yl)oxy)-3,3-dimethyl-5-oxopentanoic acid] | 105 | 5250 | 14.6 |  | 
COCCO[C@@H]1C[C@@H](c2nc(-c3ccc(F)cc3)c[nH]2)N(C(=O)[C@]23CC[C@@H](C4(C)CC4)[C@@H]2[C@H]2CC[C@@H]4[C@@]5(C)CC[C@H](OC(=O)CC(C)(C)C(=O)O)C(C)(C)[C@@H]5CC[C@@]4(C)[C@]2(C)CC3)C1 [Compound 67, 4-(((1R,3aS,5aR,5bR,7aR,9S,11aR,11bR,13aR,13bR)-3a-((2S,4R)-2-(4-(4-fluorophenyl)-1H-imidazol-2-yl)-4-(2-methoxyethoxy)pyrrolidine-1-carbonyl)-5a,5b,8,8,11a-pentamethyl-1-(1-methylcyclopropyl)icosahydro-1H-cyclopenta[a]chrysen-9-yl)oxy)-2,2-dimethyl-4-oxobutanoic acid] | 247 | 12300 | 0.44 |  | 
C=C(C)[C@@H]1CC[C@]2(C(=O)N3C[C@H](OC(C)C)C[C@H]3c3nc(-c4ccccc4)c[nH]3)CC[C@]3(C)[C@H](CC[C@@H]4[C@@]5(C)CC[C@H](OC(=O)[C@H]6C[C@@H](C(=O)O)C6(C)C)C(C)(C)[C@@H]5CC[C@]43C)[C@@H]12 [Compound 30, (1R,3S)-3-((((1R,3aS,5aR,5bR,7aR,9S,11aR,11bR,13aR,13bR)-3a-((2S,4R)-4-isopropoxy-2-(4-phenyl-1H-imidazol-2-yl)pyrrolidine-1-carbonyl)-5a,5b,8,8,11a-pentamethyl-1-(prop-1-en-2-yl)icosahydro-1H-cyclopenta[a]chrysen-9-yl)oxy)carbonyl)-2,2-dimethylcyclobutane-1-carboxylic acid] |  |  | 89.6 | 61 | 99
C=C(C)[C@@H]1CC[C@]2(C(=O)N3C[C@H](OCCOC)C[C@H]3c3nc(-c4ccc(F)cc4)c[nH]3)CC[C@]3(C)[C@H](CC[C@@H]4[C@@]5(C)CC[C@H](OC(=O)[C@H]6C[C@@H](C(=O)O)C6(C)C)C(C)(C)[C@@H]5CC[C@]43C)[C@@H]12 [Compound 9, (1R,3S)-3-((((1R,3aS,5aR,5bR,7aR,9S,11aR,11bR,13aR,13bR)-3a-((2S,4R)-2-(4-(4-fluorophenyl)-1H-imidazol-2-yl)-4-(2-methoxyethoxy)pyrrolidine-1-carbonyl)-5a,5b,8,8,11a-pentamethyl-1-(prop-1-en-2-yl)icosahydro-1H-cyclopenta[a]chrysen-9-yl)oxy)carbonyl)-2,2-dimethylcyclobutane-1-carboxylic acid] |  |  | 5.52 |  | 
C=C(C)[C@@H]1CC[C@]2(C(=O)N3CCC[C@H](c4ncc(-c5ccccc5)[nH]4)C3)CC[C@]3(C)[C@H](CC[C@@H]4[C@@]5(C)CC[C@H](OC(=O)[C@H]6C[C@@H](C(=O)O)C6(C)C)C(C)(C)[C@@H]5CC[C@]43C)[C@@H]12 [Compound 20, (1R,3S)-2,2-dimethyl-3-((((1R,3aS,5aR,5bR,7aR,9S,11aR,11bR,13aR,13bR)-5a,5b,8,8,11a-pentamethyl-3a-((S)-3-(5-phenyl-1H-imidazol-2-yl)piperidine-1-carbonyl)-1-(prop-1-en-2-yl)icosahydro-1H-cyclopenta[a]chrysen-9-yl)oxy)carbonyl)cyclobutane-1-carboxylic acid] |  |  | 58.4 |  | 
C=C(C)[C@@H]1CC[C@]2(C(=O)N3C[C@H](OCCOC)C[C@H]3c3nc(-c4cccc(F)c4)c[nH]3)CC[C@]3(C)[C@H](CC[C@@H]4[C@@]5(C)CC[C@H](OC(=O)CC(C)(C)C(=O)O)C(C)(C)[C@@H]5CC[C@]43C)[C@@H]12 [Compound 44, 4-(((1R,3aS,5aR,5bR,7aR,9S,11aR,1bR,13aR,13bR)-3a-((2S,4R)-2-(4-(3-fluorophenyl)-1H-imidazol-2-yl)-4-(2-methoxyethoxy)pyrrolidine-1-carbonyl)-5a,5b,8,8,11a-pentamethyl-1-(prop-1-en-2-yl)icosahydro-1H-cyclopenta[a]chrysen-9-yl)oxy)-2,2-dimethyl-4-oxo butanoic acid] |  |  | 27.6 |  | 
CC1([C@@H]2CC[C@]3(C(=O)N4CCC[C@H]4c4nc5ccccc5[nH]4)CC[C@]4(C)[C@H](CC[C@@H]5[C@@]6(C)CC[C@H](OC(=O)[C@H]7C[C@@H](C(=O)O)C7(C)C)C(C)(C)[C@@H]6CC[C@]54C)[C@@H]23)CC1 [Compound 61, (1R,3S)-3-((((1R,3aS,5aR,5bR,7aR,9S,11aR,11bR,13aR,13bR)-3a-((S)-2-(1H-benzo[d]imidazol-2-yl)pyrrolidine-1-carbonyl)-5a,5b,8,8,11a-pentamethyl-1-(1-methylcyclopropyl)icosahydro-1H-cyclopenta[a]chrysen-9-yl)oxy)carbonyl)-2,2-dimethylcyclobutane-1-carboxylic acid] |  |  | 56.9 | 100 | 100
C=C(C)[C@@H]1CC[C@]2(C(=O)N3CCC[C@H]3c3ncc(-c4ccccc4)[nH]3)CC[C@]3(C)[C@H](CC[C@@H]4[C@@]5(C)CC[C@H](OC(=O)C6C(C(=O)O)C6(C)C)C(C)(C)[C@@H]5CC[C@]43C)[C@@H]12 (stereo partly drawn) [Compound 22, 2,2-di methyl-3-((((1R,3aS,5aR,5bR,7aR,9S,11aR,11bR,13aR,13bR)-5a,5b,8,8,11a-pentamethyl-3a-((S)-2-(5-phenyl-1H-imidazol-2-yl)pyrrolidine-1-carbonyl)-1-(prop-1-en-2-yl)-icosahydro-1H-cyclopenta[a]chrysen-9-yl)oxy)carbonyl)cyclopropane-1-carboxylic acid] |  |  | 1000 |  | 
